Measurements: the OligoGym collection
HELM strings list units from the 5' end as sugar, base in round brackets, then linkage (d deoxyribose, r ribose, m 2'-O-methyl, p phosphodiester). Strings are as the collection lists them, not checked against the first reports. ss, as = sense and antisense strand; [lna] = locked nucleic acid (LNA); [hna] = hexitol nucleic acid; [s4r] = 4'-thioribose; [fl2r] = 2'-fluoro

Conditions: siRNA
Note: test system not given here.

Substance	target mRNA knockdown
RNA1{r(G)p.r(C)p.r(U)p.r(U)p.r(C)p.r(G)p.r(G)p.r(A)p.r(A)p.r(A)p.r(C)p.[fl2r](U)p.[fl2r](G)p.r(G)p.r(A)p.[fl2r](C)p.r(A)p.r(U)p.r(C)p.r(T)p.r(T)}|RNA2{r(G)p.r(A)p.[fl2r](U)p.r(G)p.r(U)p.r(C)p.[fl2r](C)p.[fl2r](A)p.r(G)p.r(U)p.r(U)p.r(U)p.r(C)p.r(C)p.r(G)p.r(A)p.r(A)p.r(G)p.r(C)p.r(T)p.r(T)}$$$RNA1{StrandType:ss}|RNA2{StrandType:as}$	87%
RNA1{r(U)p.m(U)p.r(A)p.r(A)p.r(G)p.r(G)p.r(A)p.r(G)p.r(A)p.r(A)p.r(G)p.r(C)p.m(U)p.r(G)p.r(A)p.r(C)p.r(G)p.r(G)p.r(C)p.r(T)p.r(T)}|RNA2{r(G)p.r(C)p.r(C)p.r(G)p.r(U)p.m(C)p.r(A)p.r(G)p.r(C)p.r(U)p.r(U)p.r(C)p.r(U)p.r(C)p.r(C)p.r(U)p.m(U)p.r(A)p.r(A)p.r(T)p.r(T)}$$$RNA1{StrandType:ss}|RNA2{StrandType:as}$	67%
RNA1{r(A)p.r(A)p.r(A)p.r(C)p.r(G)p.r(A)p.r(G)p.r(A)p.r(G)p.r(A)p.r(G)p.r(C)p.r(C)p.r(C)p.r(A)p.r(C)p.r(C)p.r(U)p.r(U)p.r(T)p.r(T)}|RNA2{r(A)p.r(A)p.r(G)p.r(G)p.m(U)p.r(G)p.r(G)p.r(G)p.r(C)p.r(U)p.r(C)p.r(U)p.r(C)p.r(U)p.r(C)p.r(G)p.r(U)p.r(U)p.r(U)p.r(T)p.r(T)}$$$RNA1{StrandType:ss}|RNA2{StrandType:as}$	57%
RNA1{r(G)p.r(C)p.r(U)p.r(G)p.[fl2r](U)p.r(A)p.r(A)p.r(C)p.r(C)p.r(U)p.r(C)p.r(G)p.r(G)p.r(A)p.r(G)p.r(A)p.r(G)p.r(U)p.r(U)p.r(T)p.r(T)}|RNA2{r(A)p.r(A)p.r(C)p.r(U)p.r(C)p.r(U)p.r(C)p.r(C)p.r(G)p.r(A)p.r(G)p.r(G)p.r(U)p.[fl2r](U)p.r(A)p.r(C)p.r(A)p.r(G)p.r(C)p.r(T)p.r(T)}$$$RNA1{StrandType:ss}|RNA2{StrandType:as}$	69%
RNA1{r(U)p.r(U)p.m(A)p.m(C)p.r(A)p.r(A)p.r(A)p.r(G)p.r(G)p.r(A)p.r(U)p.r(C)p.r(U)p.r(C)p.r(C)p.r(U)p.r(C)p.r(C)p.r(C)p.r(T)p.r(T)}|RNA2{r(G)p.r(G)p.r(G)p.r(A)p.r(G)p.r(G)p.r(A)p.r(G)p.r(A)p.r(U)p.r(C)p.r(C)p.r(U)p.r(U)p.r(U)p.r(G)p.m(U)p.r(A)p.r(A)p.r(T)p.r(T)}$$$RNA1{StrandType:ss}|RNA2{StrandType:as}$	74%
RNA1{r(C)p.r(C)p.r(G)p.r(A)p.r(A)p.r(G)p.r(A)p.r(C)p.r(G)p.r(A)p.r(A)p.r(G)p.r(C)p.r(U)p.r(A)p.r(U)p.r(G)p.r(A)p.r(A)p.r(T)p.r(T)}|RNA2{r(U)p.r(U)p.r(C)p.r(A)p.[fl2r](U)p.r(A)p.r(G)p.r(C)p.r(U)p.r(U)p.r(C)p.r(G)p.r(U)p.r(C)p.r(U)p.r(U)p.r(C)p.r(G)p.r(G)p.r(T)p.r(T)}$$$RNA1{StrandType:ss}|RNA2{StrandType:as}$	47%
RNA1{r(G)p.r(A)p.r(A)p.r(A)p.r(C)p.r(U)p.r(G)p.r(G)p.[fl2r](U)p.r(A)p.r(C)p.r(U)p.r(U)p.r(U)p.r(C)p.r(C)p.r(C)p.r(C)p.r(C)p.r(T)p.r(T)}|RNA2{r(G)p.r(G)p.r(G)p.r(G)p.r(G)p.r(A)p.r(A)p.r(A)p.r(G)p.[fl2r](U)p.r(A)p.r(C)p.r(C)p.r(A)p.r(G)p.r(U)p.r(U)p.r(U)p.r(C)p.r(T)p.r(T)}$$$RNA1{StrandType:ss}|RNA2{StrandType:as}$	58%
RNA1{m(A)p.r(G)p.m(G)p.r(A)p.m(C)p.r(G)p.m(G)p.r(U)p.m(A)p.r(C)p.m(U)p.r(U)p.m(U)p.r(C)p.m(G)p.r(A)p.m(A)p.r(A)p.m(G)p.r(T)p.r(T)}|RNA2{r(C)p.m(U)p.m(U)p.m(U)p.r(C)p.r(G)p.r(A)p.r(A)p.r(A)p.r(G)p.m(U)p.r(A)p.r(C)p.r(C)p.r(G)p.m(U)p.r(C)p.r(C)p.m(U)p.r(T)p.r(T)}$$$RNA1{StrandType:ss}|RNA2{StrandType:as}$	17%
RNA1{r(A)p.r(A)p.r(A)p.r(G)p.r(C)p.r(G)p.r(G)p.m(U)p.m(G)p.r(G)p.r(A)p.r(U)p.m(C)p.r(A)p.r(G)p.r(C)p.r(U)p.r(C)p.r(U)p.r(T)p.r(T)}|RNA2{r(A)p.r(G)p.r(A)p.r(G)p.r(C)p.m(U)p.r(G)p.r(A)p.r(U)p.r(C)p.m(C)p.m(A)p.r(C)p.r(C)p.r(G)p.r(C)p.r(U)p.r(U)p.r(U)p.r(T)p.r(T)}$$$RNA1{StrandType:ss}|RNA2{StrandType:as}$	63%
RNA1{r(U)p.m(U)p.r(A)p.r(C)p.r(A)p.r(A)p.r(A)p.r(G)p.r(G)p.r(A)p.r(U)p.r(C)p.r(U)p.r(C)p.r(C)p.r(U)p.r(C)p.r(C)p.r(C)p.r(T)p.r(T)}|RNA2{r(G)p.r(G)p.r(G)p.r(A)p.r(G)p.r(G)p.r(A)p.r(G)p.r(A)p.r(U)p.r(C)p.r(C)p.r(U)p.r(U)p.r(U)p.r(G)p.m(U)p.r(A)p.r(A)p.r(T)p.r(T)}$$$RNA1{StrandType:ss}|RNA2{StrandType:as}$	69%
RNA1{m(U)p.r(U)p.m(A)p.r(A)p.m(A)p.r(G)p.m(G)p.r(G)p.m(C)p.r(G)p.m(A)p.r(G)p.m(A)p.r(A)p.m(G)p.r(A)p.m(C)p.r(C)p.m(G)p.r(T)p.r(T)}|RNA2{r(C)p.r(G)p.r(G)p.r(U)p.r(C)p.r(U)p.r(U)p.r(C)p.r(U)p.r(C)p.r(G)p.r(C)p.r(C)p.r(C)p.r(U)p.r(U)p.r(U)p.r(A)p.r(A)p.r(T)p.r(T)}$$$RNA1{StrandType:ss}|RNA2{StrandType:as}$	67%
RNA1{r(G)p.r(A)p.r(C)p.r(G)p.[hna](U)p.r(A)p.r(A)p.[hna](A)p.r(C)p.r(G)p.[hna](G)p.r(C)p.r(C)p.[hna](A)p.r(C)p.r(A)p.r(A)p.r(G)p.r(U)p.r(U)p.d(T)}|RNA2{r(A)p.r(C)p.[lna](T)p.r(U)p.r(G)p.[lna](T)p.r(G)p.r(G)p.r(C)p.r(C)p.r(G)p.r(U)p.r(U)p.[lna](T)p.r(A)p.r(C)p.r(G)p.[lna](T)p.r(C)p.[lna](G)p.[lna](C)}$$$RNA1{StrandType:ss}|RNA2{StrandType:as}$	8.9%
RNA1{r(A)p.r(C)p.r(G)p.r(U)p.m(C)p.r(A)p.r(C)p.r(C)p.r(G)p.r(A)p.r(G)p.r(G)p.r(A)p.r(G)p.r(A)p.r(A)p.r(G)p.m(U)p.r(A)p.r(T)p.r(T)}|RNA2{r(U)p.r(A)p.r(C)p.r(U)p.r(U)p.r(C)p.r(U)p.r(C)p.r(C)p.r(U)p.r(C)p.r(G)p.r(G)p.m(U)p.r(G)p.r(A)p.r(C)p.r(G)p.r(U)p.r(T)p.r(T)}$$$RNA1{StrandType:ss}|RNA2{StrandType:as}$	48%
RNA1{m(U)p.r(U)p.m(A)p.r(A)p.m(G)p.r(G)p.m(A)p.r(G)p.m(A)p.r(A)p.m(G)p.r(C)p.m(U)p.r(G)p.m(A)p.r(C)p.m(G)p.r(G)p.m(C)p.r(T)p.r(T)}|RNA2{m(G)p.r(C)p.r(C)p.m(G)p.r(U)p.r(C)p.r(A)p.m(G)p.r(C)p.r(U)p.r(U)p.r(C)p.r(U)p.r(C)p.r(C)p.r(U)p.r(U)p.r(A)p.r(A)p.r(T)p.r(T)}$$$RNA1{StrandType:ss}|RNA2{StrandType:as}$	45%
RNA1{r(A)p.r(A)p.r(A)p.r(C)p.m(C)p.r(U)p.m(C)p.r(A)p.r(G)p.r(C)p.r(C)p.r(C)p.m(U)p.r(A)p.r(A)p.r(C)p.r(G)p.r(G)p.r(U)p.r(T)p.r(T)}|RNA2{r(A)p.r(C)p.r(C)p.r(G)p.r(U)p.m(U)p.r(A)p.r(G)p.r(G)p.r(G)p.r(C)p.m(U)p.r(G)p.r(A)p.r(G)p.r(G)p.r(U)p.r(U)p.r(U)p.r(T)p.r(T)}$$$RNA1{StrandType:ss}|RNA2{StrandType:as}$	79%
RNA1{r(C)p.r(U)p.r(U)p.r(A)p.r(C)p.r(G)p.r(C)p.r(U)p.r(G)p.r(A)p.r(G)p.r(U)p.r(A)p.r(C)p.r(U)p.r(U)p.r(C)p.r(G)p.r(A)p.r(T)p.r(T)}|RNA2{[lna](T)p.r(C)p.r(G)p.r(A)p.r(A)p.r(G)p.[lna](T)p.r(A)p.r(C)p.[lna](T)p.r(C)p.r(A)p.r(G)p.r(C)p.r(G)p.[lna](T)p.r(A)p.r(A)p.r(G)p.[lna](T)p.[lna](T)}$$$RNA1{StrandType:ss}|RNA2{StrandType:as}$	19%
RNA1{[s4r](C)p.[s4r](G)p.[s4r](U)p.[s4r](A)p.r(C)p.r(G)p.r(C)p.r(G)p.r(G)p.r(A)p.r(A)p.r(U)p.r(A)p.r(C)p.r(U)p.[s4r](U)p.[s4r](C)p.[s4r](G)p.[s4r](A)p.r(T)p.r(T)}|RNA2{r(U)p.r(C)p.r(G)p.r(A)p.r(A)p.r(G)p.r(U)p.r(A)p.r(U)p.r(U)p.r(C)p.r(C)p.r(G)p.r(C)p.r(G)p.[s4r](U)p.[s4r](A)p.[s4r](C)p.[s4r](G)p.r(T)p.r(T)}$$$RNA1{StrandType:ss}|RNA2{StrandType:as}$	88.1%
RNA1{[s4r](A)p.[s4r](A)p.[s4r](A)p.[s4r](C)p.r(A)p.r(U)p.r(G)p.r(C)p.r(A)p.r(G)p.r(A)p.r(A)p.r(A)p.r(A)p.r(U)p.r(G)p.r(C)p.r(U)p.r(G)p.r(T)p.r(T)}|RNA2{r(C)p.r(A)p.r(G)p.r(C)p.r(A)p.r(U)p.r(U)p.r(U)p.r(U)p.r(C)p.r(U)p.r(G)p.r(C)p.r(A)p.r(U)p.r(G)p.r(U)p.[s4r](U)p.[s4r](U)p.r(T)p.r(T)}$$$RNA1{StrandType:ss}|RNA2{StrandType:as}$	76.5%
RNA1{r(A)p.r(G)p.r(C)p.r(C)p.r(U)p.r(C)p.r(C)p.r(A)p.r(A)p.[fl2r](A)p.r(C)p.r(U)p.r(C)p.r(C)p.r(U)p.r(A)p.r(G)p.[fl2r](C)p.r(U)p.r(T)p.r(T)}|RNA2{r(A)p.r(G)p.r(C)p.[fl2r](U)p.r(A)p.r(G)p.r(G)p.r(A)p.r(G)p.r(U)p.r(U)p.r(U)p.r(G)p.r(G)p.r(A)p.r(G)p.r(G)p.r(C)p.r(U)p.r(T)p.r(T)}$$$RNA1{StrandType:ss}|RNA2{StrandType:as}$	69%
RNA1{r(A)p.r(A)p.r(A)p.r(G)p.r(G)p.r(G)p.r(G)p.r(A)p.r(G)p.r(U)p.m(U)p.r(G)p.r(C)p.m(U)p.r(G)p.r(G)p.r(A)p.r(A)p.r(G)p.r(T)p.r(T)}|RNA2{r(C)p.r(U)p.r(U)p.r(C)p.m(C)p.r(A)p.r(G)p.r(C)p.r(A)p.r(A)p.r(C)p.r(U)p.r(C)p.r(C)p.r(C)p.r(C)p.r(U)p.r(U)p.r(U)p.r(T)p.r(T)}$$$RNA1{StrandType:ss}|RNA2{StrandType:as}$	76%
